Results as given in US20240417370A1, “LIPIDS FOR USE IN LIPID NANOPARTICLE FORMULATIONS” (Acuitas Therapeutics, Inc., priority 2023, published 2024).

System: luciferase expression in the liver
Experiment: Luciferase mRNA in vivo evaluation using lipid nanoparticle compositions
Set-up: species or system mice
Settings: LNP-formulated lipid, tail vein injection, ng luciferase/g liver 4 hours after administration; for Liver Luc @ 0.3 mg/kg: 0.3 mg mRNA/kg; for Liver Luc @ 1.0 mg/kg: 1.0 mg mRNA/kg
Procedure: A lipid of structure (I), DSPC, cholesterol and PEG-lipid are solubilized in ethanol at a molar ratio of 50:10:38.5:1.5 or 47.5:10:40.7:1.8. Lipid nanoparticles (LNP) are prepared at a total lipid to mRNA weight ratio of approximately 10:1 to 40:1. Briefly, the mRNA is diluted to 0.2 mg/mL in 10 to 50 mM citrate buffer, pH 4 to 6 or 10 to 25 mM acetate buffer, pH 4. Syringe pumps are used to mix the ethanolic lipid solution with the mRNA aqueous solution at a ratio of about 1:5 to 1:3 (vol/vol) with total flow rates above 15 mL/min. The ethanol is then removed, and the external buffer replaced with PBS by dialysis. Finally, the lipid nanoparticles are filtered through a 0.2 µm pore sterile filter.
Studies are performed in 6-8-week-old female C57BL/6 mice (Charles River) 8-10-week-old CD-1 mice (Charles River or Inotiv) according to guidelines established by an institutional animal care committee (ACC) and the Canadian Council on Animal Care (CCAC). Varying doses of mRNA-lipid nanoparticle are systemically administered by tail vein injection and animals euthanized at a specific time point (e.g., 4 hours) post-administration. Liver and spleen are collected in pre-weighed tubes, weights determined, immediately snap frozen in liquid nitrogen, and stored at −80° C. until processing for analysis.
For liver, approximately 50 mg is dissected for analyses in a 2 mL FastPrep tubes (MP Biomedicals, Solon OH). ¼″ ceramic sphere (MP Biomedicals) is added to each tube and 500-750 μL of Glo Lysis Buffer—GLB (Promega, Madison WI) equilibrated to room temperature is added to liver tissue. Liver tissues are homogenized with the FastPrep24 instrument (MP Biomedicals) at 2×6.0 m/s for 15 seconds. Homogenate is incubated at room temperature for 5 minutes prior to a 1:4 to 1:6 dilution in GLB and assessed using SteadyGlo Luciferase assay system (Promega). Specifically, 50 μL of diluted tissue homogenate is reacted with 50 μL of SteadyGlo substrate, shaken for 10 seconds followed by 5-minute incubation and then luminescence was quantitated using a FilterMax F5 Microplate Reader (Molecular Devices, USA). The amount of protein assayed is determined by using the BCA protein assay kit (Pierce, Rockford, IL). Relative luminescence units (RLU) were then normalized to total μg protein or weight (g) of tissue assayed. To convert RLU to ng luciferase a standard curve is generated with QuantiLum Recombinant Luciferase (Promega).
The FLuc mRNA (L-7202) from Trilink Biotechnologies will express a luciferase protein, originally isolated from the firefly, Photinus pyralis. Flue is commonly used in mammalian cell culture to measure both gene expression and cell viability. It emits bioluminescence in the presence of the substrate, luciferin. This capped and polyadenylated mRNA is modified with 5-methoxyuridine and optimized for mammalian systems.
Representative compounds of the disclosure shown in Table 2 were formulated using the following molar ratio: 50% cationic lipid/10% distearoylphosphatidylcholine (DSPC)/38.5% Cholesterol/1.5% PEG lipid 2-[2-(ω-methoxy(polyethyleneglycol2000)ethoxy]-N,N-ditetradecylacetamide) or 47.5% cationic lipid/10% DSPC/40.7% Cholesterol/1.8% PEG lipid. Relative activity was determined by measuring luciferase expression in the liver 4 hours following administration via tail vein injection as described in Example 1 or by measuring the amount of human IgG in mouse serum as described in example 2. The activity was compared at a dose of 1.0 or 0.5 or 0.3 mg mRNA/kg and expressed as ng luciferase/g liver measured 4 hours after administration, as described in Example 1 or as μg IgG/mL serum measured 24 hours after administration, as described in Example 2. Compound numbers in Table 2 refer to the compound numbers of Table 1.

SMILES	Liver Luc @ 0.3 mg/kg [ng/g]	Liver Luc @ 1.0 mg/kg [ng/g]
CCCCCCCCCCN(CCCCCCCCCC)C(=O)CCCCCCCN(CCCCCCCC(=O)N(CCCCCCCCCC)CCCCCCCCCC)C[C@H]1C[C@H](O)C1 [(1R, 3R) I-2, 8,8′-((((1R,3R)-3-hydroxycyclobutyl)methyl)azanediyl)bis(N,N-didecyloctanamide)]	12651 ± 3017	82113 ± 14450
CCCCCCCCCCN(CCCCCCCCCC)C(=O)CCCCCCCN(CCCCCCCC(=O)N(CCCCCCCCCC)CCCCCCCCCC)CC[C@H]1C[C@@H](O)C1 [(1S, 3R) I-1, 8,8′-((2-((1S,3R)-3-hydroxycyclobutyl)ethyl)azanediyl)bis(N,N-didecyloctanamide)]	18927 ± 2102	79233 ± 12026
CCCCCCCCCCN(CCCCCCCCCC)C(=O)CCCCCCCN(CCCCCCCC(=O)N(CCCCCCCCCC)CCCCCCCCCC)C[C@H]1C[C@@H](O)C1 [(1S, 3S) I-2, 8,8′-((((1S,3S)-3-hydroxycyclobutyl)methyl)azanediyl)bis(N,N-didecyloctanamide)]	10872 ± 2411	91854 ± 15303
